# From patent US5760041A, “4-aminoquinazoline EGFR Inhibitors” (American Cyanamid Company, priority 1997, dated 1998)
# Like-named read-outs stand apart in the source and are kept apart here.
# What was measured:
# [1] = test system: human epidermoid tumors (A431); experiment: In vivo inhibition of the growth of human epidermoid tumors (A431) in mice; details: for inhibition of tumor growth in vivo (in words): summary of Tables 4-7
# Protocol: BALB/c nu/nu female mice (Charles River, Wilmington, Mass.) were used in the in vivo standard pharmacological test procedures. […] When tumors attained a mass of between 100 and 150 mg, the mice were randomized into treatment groups (day zero). Mice were treated IP once a day either on days 1, 5, and 9 or on days 1 through 10 post staging with doses of either 80, 40 or 20 mg/kg/dose of the compound to be evaluated in 0.2% Klucel. Control animals received no drug. Tumor mass was determined every 7 days [(length×width^2)/2] for 28 days post staging. Relative tumor growth (Mean tumor mass on day 7, 14, 21, and 28 divided by the mean tumor mass on day zero) is determined for each treatment group. The % T/C (Tumor/Control) is determined by dividing the relative tumor growth of the treated group by the relative tumor growth of the placebo group and multiplying by 100.
# Neu-3T3 cells = experiment: Inhibition of cell growth, [3H]-thymidine incorporation, Neu-3T3; format: cell-based; details: Mus musculus, read-out: IC50, NEU-3T3
# Protocol: (§1) Representative compounds of this invention were evaluated for their ability to inhibit the growth of the cell lines described below in vitro. The inhibition is quantitated by measuring the decrease in the incorporation of radio-labeled thymidine when the cells are grown in the presence of the inhibitor. A431 and SKBR3 cell lines are obtained from American Type Culture Collection, Rockville, Md. […] NHEK cells are obtained from Clonetics (San Diego, Calif.). Cells were routinely grown in a humidified incubator in 5% CO2 in air.
# (§2) Cells were seeded at 10,000 cells/well in 96 well plates in complete media and allowed to grow to log phase. […] After overnight incubation in low serum (or EGF lacking) media, the compounds to be evaluated were added and cells remained in the presence of compounds for 48 to 72 hours. Media with test compound was then removed and complete media was added back. The cells were allowed to grow for 18 hours. This is followed by incubation in [^3 H]thymidine (1mCi/ml in serum/EGF media) for 4 hours. Cells were lysed in 0.5M NaOH for at least 30 min at 37° C. and radioactivity analyzed.
# (§3) The cell growth inhibition data is provided below in TABLE 3. […] The % inhibition of the compound evaluated was determined for at least three different concentrations and the IC50 value evaluated from the dose response curve.
# (§4) CPM(control) is in units of counts per minute and is a number expressing the amount of [^3 H]thymidine incorporated onto the DNA when cells are grown in the absence of test compound as measured by liquid scintillation counting.
# [2] = biological target: T1, Epidermal Growth Factor Receptor Kinase (EGF-R) (Homo sapiens, UniProt P00533); experiment: Inhibition of Epidermal Growth Factor Receptor Kinase (EGF-R), phosphorylation of peptide substrate RR-SRC; format: biochemical; details: A431 membrane extract; average of number of tests
# T1 construct: The enzyme was obtained as a membrane extract of A431 cells; (cells); host or cells: A431 cells (membrane extract)
# T1 sequence (P00533 25-1210): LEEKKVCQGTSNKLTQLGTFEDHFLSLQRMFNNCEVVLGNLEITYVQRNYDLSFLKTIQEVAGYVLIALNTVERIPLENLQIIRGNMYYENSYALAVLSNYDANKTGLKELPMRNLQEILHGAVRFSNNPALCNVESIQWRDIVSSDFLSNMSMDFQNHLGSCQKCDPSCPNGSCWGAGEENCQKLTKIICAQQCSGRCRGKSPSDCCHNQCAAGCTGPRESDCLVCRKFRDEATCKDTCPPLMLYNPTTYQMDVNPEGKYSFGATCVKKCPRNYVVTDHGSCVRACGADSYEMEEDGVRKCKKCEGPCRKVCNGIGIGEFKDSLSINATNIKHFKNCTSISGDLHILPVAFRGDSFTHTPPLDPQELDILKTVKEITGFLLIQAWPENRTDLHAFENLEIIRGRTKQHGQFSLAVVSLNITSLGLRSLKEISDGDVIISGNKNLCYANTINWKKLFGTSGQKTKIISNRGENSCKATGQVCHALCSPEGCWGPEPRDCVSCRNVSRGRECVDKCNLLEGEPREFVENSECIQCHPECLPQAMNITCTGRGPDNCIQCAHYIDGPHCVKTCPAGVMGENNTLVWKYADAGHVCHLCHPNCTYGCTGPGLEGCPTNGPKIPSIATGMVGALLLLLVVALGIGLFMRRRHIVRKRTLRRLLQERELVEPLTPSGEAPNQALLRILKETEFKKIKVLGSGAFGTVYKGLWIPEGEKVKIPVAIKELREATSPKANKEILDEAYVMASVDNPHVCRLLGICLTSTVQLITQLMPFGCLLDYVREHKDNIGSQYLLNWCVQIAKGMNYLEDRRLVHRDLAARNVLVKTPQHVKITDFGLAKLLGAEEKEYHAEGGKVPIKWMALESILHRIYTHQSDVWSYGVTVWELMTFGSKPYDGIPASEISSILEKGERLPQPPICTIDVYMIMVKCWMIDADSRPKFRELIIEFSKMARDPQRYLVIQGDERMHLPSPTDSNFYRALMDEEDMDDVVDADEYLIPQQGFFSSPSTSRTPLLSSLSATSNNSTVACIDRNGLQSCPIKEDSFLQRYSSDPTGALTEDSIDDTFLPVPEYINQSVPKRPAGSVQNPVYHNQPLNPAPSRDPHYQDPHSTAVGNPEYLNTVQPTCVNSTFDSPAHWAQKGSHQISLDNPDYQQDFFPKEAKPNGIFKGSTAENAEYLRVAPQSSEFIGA
# T1 sequence (P01133 971-1023 partner limits assumed): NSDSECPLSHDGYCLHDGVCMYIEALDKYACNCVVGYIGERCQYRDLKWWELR
# Protocol: The % inhibition of the test compound was determined for at least three different concentrations and the IC50 value was evaluated from the dose response curve.
# The CPM values were corrected for the background counts produced by ATP in the absence of the enzymatic reaction.
# SKBR3 cells = experiment: Inhibition of cell growth, [3H]-thymidine incorporation, SKBR3; format: cell-based; details: Homo sapiens
# Protocol: Representative compounds of this invention were evaluated for their ability to inhibit the growth of the cell lines described below in vitro. The inhibition is quantitated by measuring the decrease in the incorporation of radio-labeled thymidine when the cells are grown in the presence of the inhibitor. A431 and SKBR3 cell lines are obtained from American Type Culture Collection, Rockville, Md. […] NHEK cells are obtained from Clonetics (San Diego, Calif.). Cells were routinely grown in a humidified incubator in 5% CO2 in air. […] Cells were seeded at 10,000 cells/well in 96 well plates in complete media and allowed to grow to log phase. […] After overnight incubation in low serum (or EGF lacking) media, the compounds to be evaluated were added and cells remained in the presence of compounds for 48 to 72 hours. Media with test compound was then removed and complete media was added back. The cells were allowed to grow for 18 hours. This is followed by incubation in [^3 H]thymidine (1mCi/ml in serum/EGF media) for 4 hours. Cells were lysed in 0.5M NaOH for at least 30 min at 37° C. and radioactivity analyzed. The cell growth inhibition data is provided below in TABLE 3. […] The % inhibition of the compound evaluated was determined for at least three different concentrations and the IC50 value evaluated from the dose response curve. […] CPM(control) is in units of counts per minute and is a number expressing the amount of [^3 H]thymidine incorporated onto the DNA when cells are grown in the absence of test compound as measured by liquid scintillation counting.
# NHEK cells = experiment: Inhibition of cell growth, [3H]-thymidine incorporation, NHEK; format: cell-based; details: Homo sapiens, read-out: IC50, NHEK
# Protocol: as §1, §2, §3, §4
# A431 cells = experiment: Inhibition of cell growth, [3H]-thymidine incorporation, A431; format: cell-based; details: Homo sapiens, A-431, read-out: IC50, A431
# Protocol: as §1
# Cells were seeded at 10,000 cells/well in 96 well plates in complete media and allowed to grow to log phase. […] After overnight incubation in low serum (or EGF lacking) media, the compounds to be evaluated were added and cells remained in the presence of compounds for 48 to 72 hours. […] Cells were lysed in 0.5M NaOH for at least 30 min at 37° C. and radioactivity analyzed.
# as §3, §4
# [3] = Table 5, 20 mg/kg/dose IP, days 1 through 15
# [4] = Table 6, 20 mg/kg IP, day 1 through 10
# [5] = Table 6, 20 mg/kg IP, day 1 through 10, * p < 0.01
# [6] = Table 6, 80 mg/kg IP, days 1, 5, and 9
# [7] = Table 6, 80 mg/kg IP, days 1, 5, and 9, * p < 0.01
# [8] = Table 7, 20 mg/kg IP, days through 10
# [9] = Table 7, 80 mg/kg IP, days 1, 5, and 9
# [10] = SK-BR-3, 48 to 72 hours with compound, read-out: IC50, SKBR3
# [11] = Table 4, 20 mg/kg/dose IP, days 1, 5, 9
# [12] = Table 4, 20 mg/kg/dose IP, days 1 through 10
# [13] = Table 4, 40 mg/kg/dose IP, days 1, 5, 9
# [14] = Table 4, 80 mg/kg/dose IP, days 1, 5, 9
# [15] = Table 7, 80 mg/kg IP, days 1, 5, and 9, * p < 0.01
compound,measurement,setting,value
"COc1cc2ncnc(Nc3cccc(Br)c3)c2cc1OC [N-(3-bromophenyl)-6,7-dimethoxy-4-quinazolinamine, reference compound]",inhibition of tumor growth in vivo (in words),[1]; A431 tumors in mice,devoid of antineoplastic activity
same,% T/C Day 7,[1]; [3],95%
same,% T/C Day 14,[1]; [3],116%
same,% T/C Day 21,[1]; [3],128%
same,% T/C Day 28,[1]; [3],140%
same,RTG Day 7,[1]; [3],3.03
same,RTG Day 14,[1]; [3],6.58
same,RTG Day 21,[1]; [3],10.5
same,RTG Day 28,[1]; [3],14.47
same,S/T (No. Survivors/No. Treated on Day +28),[1]; [3],15/15
"C=CC(=O)Nc1cc2c(Nc3cccc(C)c3)ncnc2cc1F [Comparator A, N-[4-[(3-methylphenyl)amino]-6-quinazolinyl]-7-fluoro-2-propenamide, reference compound]",activity relative to the compound of Example 9 (in words),"[1]; A431 tumors in mice, Tables 6 and 7",substantially less active than the compound of Example 9
same,inhibition of tumor growth in vivo (in words),[1]; A431 tumors in mice,failed to significantly reduce tumor growth at both doses tested
same,RTG Day 7,[1]; [4],4.82
same,RTG Day 14,[1]; [4],7.36
same,RTG Day 21,[1]; [4],8.75
same,S/T (No. Survivors/No. Treated on Day +21),[1]; [4],9/10
same,% T/C Day 7,[1]; [5],87%
same,% T/C Day 14,[1]; [5],63%
same,% T/C Day 21,[1]; [5],56%
same,RTG Day 7,[1]; [6],3.39
same,RTG Day 14,[1]; [6],5.60
same,RTG Day 21,[1]; [6],7.68
same,S/T (No. Survivors/No. Treated on Day +21),[1]; [6],10/10
same,% T/C Day 7,[1]; [7],61%
same,% T/C Day 14,[1]; [7],48%
same,% T/C Day 21,[1]; [7],48%
"O=C(O)/C=C/C(=O)Nc1ccc2ncnc(Nc3cccc(Br)c3)c2c1 [Example 10, 4-[[4-[(3-Bromophenyl)amino]-6-quinazolinyl]amino]-4-oxo-(E)-2-butenoic acid]",IC50,Neu-3T3 cells,15000 nM
"O=C(C#Cc1ccccc1)Nc1ccc2ncnc(Nc3cccc(Br)c3)c2c1 [Example 14, N-[4-[(3-bromophenyl)amino]-6-quinazolinyl]-(3-phenyl-2-propynamide)]",IC50,[2],1000 nM
"CCCC(=O)Nc1ccc2ncnc(Nc3cccc(Br)c3)c2c1 [Comparator B, N-[4-[(3-bromophenyl)amino]-6-quinazolinyl]-butanamide, reference compound]",inhibition of tumor growth in vivo (in words),[1]; A431 tumors in mice,failed to significantly reduce tumor growth at both doses tested
same,RTG Day 7,[1]; [8],2.90
same,RTG Day 14,[1]; [8],4.19
same,RTG Day 21,[1]; [8],5.62
same,RTG Day 28,[1]; [8],8.04
same,S/T (No. Survivors/No. Treated on Day +28),[1]; [8],5/5
same,RTG Day 7,[1]; [9],3.37
same,RTG Day 14,[1]; [9],5.43
same,RTG Day 21,[1]; [9],6.21
same,RTG Day 28,[1]; [9],10.26
same,S/T (No. Survivors/No. Treated on Day +28),[1]; [9],5/5
"CC(C)=CC(=O)Nc1ccc2ncnc(Nc3cccc(Br)c3)c2c1 [Example 6, N-[4-[(3-Bromophenyl)amino]-6-quinazolinyl]-3-methyl-2-butenamide]",IC50,SKBR3 cells; [10],> 50000 nM
same,IC50,Neu-3T3 cells; 48 to 72 hours with compound,> 50000 nM
"O=C(O)/C=C\C(=O)Nc1ccc2ncnc(Nc3cccc(Br)c3)c2c1 [Example 4, 4-[[4-[(3-Bromophenyl)amino]-6-quinazolinyl]amino]-4-oxo-(Z)-2-butenoic acid]",IC50,NHEK cells,170 nM
"CC#CC(=O)Nc1ccc2ncnc(Nc3cccc(Br)c3)c2c1 [Example 9, N-[4-[(3-Bromophenyl)amino]-6-quinazolinyl]-2-butynamide]",inhibition of tumor growth in vivo (in words),[1]; A431 tumors in mice,significantly (p<0.01) inhibited human epidermoid tumor growth in vivo
same,% T/C Day 7,[1]; [11],47%
same,% T/C Day 16,[1]; [11],34%
same,% T/C Day 21,[1]; [11],38%
same,% T/C Day 28,[1]; [11],41%
same,RTG Day 7,[1]; [11],1.72
same,RTG Day 16,[1]; [11],2.69
same,RTG Day 21,[1]; [11],4.33
same,RTG Day 28,[1]; [11],6.18
same,S/T (No. Survivors/No. Treated on Day +28),[1]; [11],5/5
same,% T/C Day 7,[1]; [12],20%
same,% T/C Day 16,[1]; [12],13%
same,% T/C Day 21,[1]; [12],11%
same,% T/C Day 28,[1]; [12],17%
same,RTG Day 7,[1]; [12],0.75
same,RTG Day 16,[1]; [12],1.01
same,RTG Day 21,[1]; [12],1.25
same,RTG Day 28,[1]; [12],2.53
same,S/T (No. Survivors/No. Treated on Day +28),[1]; [12],5/5
same,% T/C Day 7,[1]; [13],40%
same,% T/C Day 16,[1]; [13],28%
same,% T/C Day 21,[1]; [13],27%
same,% T/C Day 28,[1]; [13],27%
same,RTG Day 7,[1]; [13],1.48
same,RTG Day 16,[1]; [13],2.23
same,RTG Day 21,[1]; [13],3.05
same,RTG Day 28,[1]; [13],4.04
same,S/T (No. Survivors/No. Treated on Day +28),[1]; [13],5/5
same,% T/C Day 7,[1]; [14],18%
same,% T/C Day 16,[1]; [14],11%
same,% T/C Day 21,[1]; [14],9%
same,% T/C Day 28,[1]; [14],9%
same,RTG Day 7,[1]; [14],0.71
same,RTG Day 16,[1]; [14],0.91
same,RTG Day 21,[1]; [14],1.07
same,RTG Day 28,[1]; [14],1.36
same,S/T (No. Survivors/No. Treated on Day +28),[1]; [14],5/5
same,% T/C Day 7,[1]; [3],35%
same,% T/C Day 14,[1]; [3],22%
same,% T/C Day 21,[1]; [3],19%
same,% T/C Day 28,[1]; [3],22%
same,RTG Day 7,[1]; [3],1.11
same,RTG Day 14,[1]; [3],1.26
same,RTG Day 21,[1]; [3],1.51
same,RTG Day 28,[1]; [3],2.55
same,S/T (No. Survivors/No. Treated on Day +28),[1]; [3],14/15
same,RTG Day 7,[1]; [4],0.79
same,RTG Day 14,[1]; [4],1.39
same,RTG Day 21,[1]; [4],2.55
same,S/T (No. Survivors/No. Treated on Day +21),[1]; [4],10/10
same,% T/C Day 7,[1]; [5],14%
same,% T/C Day 14,[1]; [5],12%
same,% T/C Day 21,[1]; [5],16%
same,RTG Day 7,[1]; [6],1.25
same,RTG Day 14,[1]; [6],2.50
same,RTG Day 21,[1]; [6],3.77
same,S/T (No. Survivors/No. Treated on Day +21),[1]; [6],10/10
same,% T/C Day 7,[1]; [7],18%
same,% T/C Day 14,[1]; [7],21%
same,% T/C Day 21,[1]; [7],24%
same,RTG Day 7,[1]; [9],0.89
same,RTG Day 14,[1]; [9],1.50
same,RTG Day 21,[1]; [9],2.44
same,RTG Day 28,[1]; [9],3.45
same,S/T (No. Survivors/No. Treated on Day +28),[1]; [9],5/5
same,% T/C Day 7,[1]; [15],25%
same,% T/C Day 14,[1]; [15],27%
same,% T/C Day 21,[1]; [15],42%
same,% T/C Day 28,[1]; [15],45%
same,IC50,NHEK cells,2 nM
same,IC50,"SKBR3 cells; SK-BR-3, read-out: IC50, SKBR3",1060 nM
"CC=CC=CC(=O)Nc1ccc2ncnc(Nc3cccc(Br)c3)c2c1 [Example 11, N-[4-[(3-Bromophenyl)amino]-6-quinazolinyl]-2,4-hexadienamide]",IC50,A431 cells,800 nM
same,IC50,NHEK cells,850 nM
same,IC50,SKBR3 cells; [10],4000 nM
same,IC50,Neu-3T3 cells; 48 to 72 hours with compound,400 nM
same,IC50,[2],56 nM
